The target of one experiment is T1, α2A adrenergic receptor (Homo sapiens, UniProt P08913).
T1 construct: expressed in transfected cells; host or cells: Chinese hamster lung cell line (membrane preparation)
T1 sequence (P08913 1-465): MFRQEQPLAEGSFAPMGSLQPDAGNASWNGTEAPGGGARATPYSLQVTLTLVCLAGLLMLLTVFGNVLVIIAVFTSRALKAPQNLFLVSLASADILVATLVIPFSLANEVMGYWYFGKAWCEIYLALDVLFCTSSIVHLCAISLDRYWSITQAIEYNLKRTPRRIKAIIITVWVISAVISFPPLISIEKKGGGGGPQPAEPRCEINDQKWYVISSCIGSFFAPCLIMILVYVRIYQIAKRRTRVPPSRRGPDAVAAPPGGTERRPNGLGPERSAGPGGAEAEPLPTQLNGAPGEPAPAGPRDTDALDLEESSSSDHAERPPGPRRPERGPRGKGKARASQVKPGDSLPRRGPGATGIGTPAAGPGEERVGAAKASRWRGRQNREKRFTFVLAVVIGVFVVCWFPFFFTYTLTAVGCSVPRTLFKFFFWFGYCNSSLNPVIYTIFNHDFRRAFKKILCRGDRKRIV
Description: Radioligand binding, α2A adrenergic receptor ([3H]rauwolscine).

In another experiment the target is T2, 5-HT1A receptor (Homo sapiens, UniProt P08908).
T2 construct: expressed in transfected cells; host or cells: HEK 293 (membrane preparation)
T2 sequence (P08908 1-422): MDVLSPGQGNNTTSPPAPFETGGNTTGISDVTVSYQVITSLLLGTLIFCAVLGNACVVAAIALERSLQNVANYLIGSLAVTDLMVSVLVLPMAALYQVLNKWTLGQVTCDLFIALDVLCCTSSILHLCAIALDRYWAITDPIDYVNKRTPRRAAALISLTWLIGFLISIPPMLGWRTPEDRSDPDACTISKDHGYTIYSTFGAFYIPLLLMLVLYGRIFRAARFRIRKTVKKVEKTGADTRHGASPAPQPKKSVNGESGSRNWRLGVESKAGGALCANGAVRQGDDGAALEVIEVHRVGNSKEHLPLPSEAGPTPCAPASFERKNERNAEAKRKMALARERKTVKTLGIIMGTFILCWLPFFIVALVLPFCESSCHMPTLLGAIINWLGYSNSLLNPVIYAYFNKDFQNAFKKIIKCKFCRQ
Put plainly: Radioligand binding, 5-HT1A receptor ([3H]8-OH-DPAT).

A further experiment addresses T3, human 5-HT2B receptor (Homo sapiens, UniProt P41595).
T3 construct: expressed in transfected cells; host or cells: HEK 293
Put plainly: Activity at the 5-HT2B receptor (FLIPR calcium, HEK 293 cells). Type of experiment: cell-based. As to conditions: for Emax: HEK293, relative to 5-HT = 100%, read-out: h5-HT2B Activation efficacy max ± SD. As to the method: Activity at the 5-HT2B receptor was examined as previously described ([Luethi et al., 2018]). In summary, HEK 293 cells expressing the human 5-HT2B receptor were seeded at a density of 50,000 cells per well in 96-well poly-D-lysine-coated plates overnight at 37°C. The cells were then incubated in growth medium consisting of high glucose Dulbecco’s modified Eagle’s medium (DMEM) (Invitrogen, Zug, Switzerland), 10% fetal calf serum (non-dialyzed, heat-inactivated), 250 mg/l Geneticin and 10 ml/l PenStrep (Gibco), overnight at 37°C. After removal of the growth medium via snap inversion, calcium indicator Fluo-4-solution (100 µl) was injected into each well (Molecular Probes, Eugene, OR, USA) and incubated for 45 min at 31°C. Afterwards, the Fluo-4 solution was removed (snap inversion) and a further 100 µl of the Fluo-4 solution was added and incubated (45 min, 31°C). Thereafter, using the EMBLA cell washer, the cells were washed just before testing with HBSS and 20 mM HEPES and exposed to 100 µl of assay buffer. The well plate was positioned in the FLIPR and while online, 25 µl of the test compounds diluted in assay buffer were added. Concentration-response curves were calculated using nonlinear regression, and EC50 values were obtained. The maximal activity at the receptors was calculated relative to 5-HT activity which was defined as 100%.

For another experiment, the target named is T4, rat TAAR1 (Rattus norvegicus, UniProt Q923Y9).
T4 construct: expressed in transfected cells; host or cells: HEK 293 (membrane preparation)
T4 sequence (Q923Y9 whole entry): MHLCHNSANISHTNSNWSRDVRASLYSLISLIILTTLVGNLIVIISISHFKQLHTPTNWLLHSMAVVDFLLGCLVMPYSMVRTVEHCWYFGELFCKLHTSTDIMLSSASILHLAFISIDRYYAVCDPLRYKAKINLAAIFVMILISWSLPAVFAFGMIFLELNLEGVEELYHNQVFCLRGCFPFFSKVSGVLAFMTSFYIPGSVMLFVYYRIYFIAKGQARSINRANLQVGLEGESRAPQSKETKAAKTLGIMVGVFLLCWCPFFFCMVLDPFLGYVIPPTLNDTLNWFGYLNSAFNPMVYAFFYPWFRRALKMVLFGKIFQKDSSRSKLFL
Put plainly: Radioligand binding, rat TAAR1 ([3H]RO5166017).

Another experiment addresses T5, 5-HT2C receptor (Homo sapiens, UniProt P28335).
T5 construct: expressed in transfected cells; host or cells: HEK 293 (membrane preparation)
T5 sequence (P28335 33-458): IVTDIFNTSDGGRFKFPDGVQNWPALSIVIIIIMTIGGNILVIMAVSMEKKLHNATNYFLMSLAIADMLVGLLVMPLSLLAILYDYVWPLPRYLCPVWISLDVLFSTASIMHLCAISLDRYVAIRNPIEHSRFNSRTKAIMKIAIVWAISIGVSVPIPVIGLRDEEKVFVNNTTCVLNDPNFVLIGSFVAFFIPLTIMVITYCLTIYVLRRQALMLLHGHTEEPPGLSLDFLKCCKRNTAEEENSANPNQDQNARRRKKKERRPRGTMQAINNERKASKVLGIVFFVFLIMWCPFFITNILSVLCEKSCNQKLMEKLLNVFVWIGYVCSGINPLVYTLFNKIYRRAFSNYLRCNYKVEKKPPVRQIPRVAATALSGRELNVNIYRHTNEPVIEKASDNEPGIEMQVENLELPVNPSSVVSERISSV
Description: biochemical. Format: binding. As to conditions: for Ki: [3H]mesulgerine, read-out: h5-HT2C Receptor binding Ki ± SD.

The target of a further experiment is hDAT (Homo sapiens, UniProt Q01959). Description: Radioligand binding, DAT ([3H]WIN35,428). On the set-up: expressed in transfected cells; host or cells: HEK 293 (membrane preparation).
Sequence of hDAT (Q01959 whole entry): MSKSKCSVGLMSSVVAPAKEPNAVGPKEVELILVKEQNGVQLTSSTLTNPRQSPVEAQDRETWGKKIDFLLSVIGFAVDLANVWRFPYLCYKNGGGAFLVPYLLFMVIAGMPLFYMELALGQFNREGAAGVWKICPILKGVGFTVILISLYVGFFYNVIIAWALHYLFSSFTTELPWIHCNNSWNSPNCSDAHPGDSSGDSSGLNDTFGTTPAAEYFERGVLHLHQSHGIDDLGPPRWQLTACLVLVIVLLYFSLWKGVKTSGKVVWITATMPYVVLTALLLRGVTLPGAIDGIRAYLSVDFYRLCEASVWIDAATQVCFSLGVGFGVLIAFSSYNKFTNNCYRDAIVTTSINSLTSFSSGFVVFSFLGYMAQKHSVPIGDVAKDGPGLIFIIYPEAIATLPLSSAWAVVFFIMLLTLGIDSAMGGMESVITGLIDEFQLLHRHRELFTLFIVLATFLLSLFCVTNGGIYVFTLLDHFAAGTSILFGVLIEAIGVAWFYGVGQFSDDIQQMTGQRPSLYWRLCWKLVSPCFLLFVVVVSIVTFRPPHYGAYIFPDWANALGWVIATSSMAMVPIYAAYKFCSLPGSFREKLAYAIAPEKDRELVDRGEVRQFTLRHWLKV
For another experiment, the target named is hNET (Homo sapiens, UniProt P23975). Put plainly: Radioligand binding, NET (N-methyl-[3H]nisoxetine). Set-up: expressed in transfected cells; host or cells: HEK 293 (membrane preparation).
Sequence of hNET (P23975 whole entry): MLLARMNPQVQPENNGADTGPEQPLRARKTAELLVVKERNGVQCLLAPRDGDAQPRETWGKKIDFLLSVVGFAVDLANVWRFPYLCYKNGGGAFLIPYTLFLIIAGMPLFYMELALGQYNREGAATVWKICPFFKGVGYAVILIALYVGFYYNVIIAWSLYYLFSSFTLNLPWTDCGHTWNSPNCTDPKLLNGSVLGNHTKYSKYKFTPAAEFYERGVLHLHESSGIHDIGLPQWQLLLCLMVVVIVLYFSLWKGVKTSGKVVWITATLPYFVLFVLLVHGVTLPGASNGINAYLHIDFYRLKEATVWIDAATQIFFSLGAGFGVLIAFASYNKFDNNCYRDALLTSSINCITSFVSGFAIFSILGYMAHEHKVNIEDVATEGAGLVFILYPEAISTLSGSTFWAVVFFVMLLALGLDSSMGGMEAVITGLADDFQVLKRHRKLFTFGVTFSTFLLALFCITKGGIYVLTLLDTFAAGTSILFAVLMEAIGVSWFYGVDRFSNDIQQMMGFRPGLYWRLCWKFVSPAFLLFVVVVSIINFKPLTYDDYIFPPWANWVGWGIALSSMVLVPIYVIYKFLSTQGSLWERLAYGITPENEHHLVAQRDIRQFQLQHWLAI
A further experiment addresses T6, α1A adrenergic receptor (Homo sapiens, UniProt P35348).
T6 construct: expressed in transfected cells; host or cells: Chinese hamster ovary cell line (membrane preparation)
T6 sequence (P35348 1-466): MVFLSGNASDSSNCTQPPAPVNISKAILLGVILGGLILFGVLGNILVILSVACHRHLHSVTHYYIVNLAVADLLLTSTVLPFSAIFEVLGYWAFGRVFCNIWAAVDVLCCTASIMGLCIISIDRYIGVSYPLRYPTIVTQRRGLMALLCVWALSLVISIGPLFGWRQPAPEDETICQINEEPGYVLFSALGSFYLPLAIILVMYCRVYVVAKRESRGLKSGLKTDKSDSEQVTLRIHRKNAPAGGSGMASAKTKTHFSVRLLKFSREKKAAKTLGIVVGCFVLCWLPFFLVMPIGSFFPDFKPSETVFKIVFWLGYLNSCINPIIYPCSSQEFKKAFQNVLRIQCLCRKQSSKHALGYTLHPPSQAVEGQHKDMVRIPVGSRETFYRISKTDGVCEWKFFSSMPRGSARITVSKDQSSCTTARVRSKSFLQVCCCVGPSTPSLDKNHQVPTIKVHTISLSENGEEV
Description: Radioligand binding, α1A adrenergic receptor ([3H]prazosin).

Structures are written as SMILES.

These results are taken from PMC6893898, “Receptor Interaction Profiles of 4-Alkoxy-Substituted 2,5-Dimethoxyphenethylamines and Related Amphetamines” (Frontiers in Pharmacology, 2019).

The Ki is the equilibrium dissociation constant of an inhibitor or competing ligand from its target. As usually defined, the EC50 is the concentration at which the effect is half-maximal.

T3 sequence (P41595 whole entry): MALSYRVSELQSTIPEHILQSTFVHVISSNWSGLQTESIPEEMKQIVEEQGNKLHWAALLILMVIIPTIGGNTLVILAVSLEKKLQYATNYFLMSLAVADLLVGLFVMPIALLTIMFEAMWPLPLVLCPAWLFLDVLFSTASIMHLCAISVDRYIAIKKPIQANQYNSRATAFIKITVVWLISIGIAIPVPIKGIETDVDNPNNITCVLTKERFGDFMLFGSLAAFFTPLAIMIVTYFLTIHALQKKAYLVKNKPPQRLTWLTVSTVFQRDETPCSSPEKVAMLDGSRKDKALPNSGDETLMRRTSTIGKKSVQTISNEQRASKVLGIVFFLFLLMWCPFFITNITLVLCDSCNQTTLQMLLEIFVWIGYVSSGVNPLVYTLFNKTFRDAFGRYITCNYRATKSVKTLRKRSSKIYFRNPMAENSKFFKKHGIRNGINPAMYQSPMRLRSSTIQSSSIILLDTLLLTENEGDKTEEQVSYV

As to `COc1cc(OC(C)C)c(OC)cc1CC(C)N` (stereo not drawn) [MIPM, 2,5-dimethoxy-4-isopropoxyamphetamine], the Ki at α2A adrenergic receptor was over 4.8 µM; on 5-HT1A receptor it was over 5.6 µM; on rat TAAR1, 2.9 ± 0.7 µM; at 5-HT2C receptor, 9.03 ± 2.39 µM; at hDAT it was over 8.7 µM; on hNET it was over 9.7 µM. The compound further returned an inhibition constant (Ki) at α1A adrenergic receptor of over 6.5 µM. Besides, the EC50 at human 5-HT2B receptor was 0.18 ± 0.12 µM. Also, the “Higher 5-HT2B activation potency compared to TMA-2 (19)” value at human 5-HT2B receptor is recorded as 2 fold. In addition, at human 5-HT2B receptor, the Emax came to 20 ± 14%. The “Reduction of 5-HT2C binding affinity compared to TMA-2 (19)” value at 5-HT2C receptor was found to be 2 fold.
`COc1cc(OCC(F)(F)F)c(OC)cc1CC(C)N` (stereo not drawn) [MTFEM, 2,5-dimethoxy-4-(2,2,2-trifluoroethoxy)amphetamine]: the Ki at α2A adrenergic receptor is over 4.8 µM; on 5-HT1A receptor, over 5.6 µM; at rat TAAR1, 1.3 ± 0.1 µM; at 5-HT2C receptor it was 2.4 ± 0.8 µM; at hDAT, over 8.7 µM; at hNET it was over 9.7 µM. The inhibition constant (Ki) on α1A adrenergic receptor was over 6.5 µM. In addition, on human 5-HT2B receptor, the half-maximal effective concentration (EC50) came out at 0.2 ± 0.03 µM. Moreover, the Emax on human 5-HT2B receptor was determined as 5%. Besides, the “Increase in 5-HT2C binding affinity compared to MFEM (15)” value at 5-HT2C receptor is about 5 fold.
